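48-hour exposure; five concentrations; linearly interpolated endpoints. GI50 = concentration required for 50% inhibition of growth. TGI: total growth inhibition.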
What was measured:
Assay in all cases: inhibition of tumour cell growth, NCI panel, 48 h
K-562 leukemia = tested on: K-562 leukemia
NCI-H460 lung = tested on: NCI-H460 lung
SNB-19 CNS = tested on: SNB-19 CNS
MCF7 breast = tested on: MCF7 breast
OVCAR-5 ovarian = tested on: OVCAR-5 ovarian
HCT-116 colon = tested on: HCT-116 colon
UACC-257 melanoma = tested on: UACC-257 melanoma
MDA-MB-231 breast = tested on: MDA-MB-231 breast
T-47D breast = tested on: T-47D breast
SK-MEL-5 melanoma = tested on: SK-MEL-5 melanoma
RXF 393 renal = tested on: RXF 393 renal
UACC-62 melanoma = tested on: UACC-62 melanoma
DU-145 prostate = tested on: DU-145 prostate
HT29 colon = tested on: HT29 colon
TK-10 renal = tested on: TK-10 renal
BT-549 breast = tested on: BT-549 breast
NCI/ADR-RES ovarian = tested on: NCI/ADR-RES ovarian
A498 renal = tested on: A498 renal
CAKI-1 renal = tested on: CAKI-1 renal
NCI-H522 lung = tested on: NCI-H522 lung
HOP-62 NSCLC = tested on: HOP-62 NSCLC
SK-OV-3 ovarian = tested on: SK-OV-3 ovarian
COLO 205 colon = tested on: COLO 205 colon
HCC-2998 colon = tested on: HCC-2998 colon
HL-60(TB) leukemia = tested on: HL-60(TB) leukemia
SF-268 CNS = tested on: SF-268 CNS
HCT-15 colon = tested on: HCT-15 colon
OVCAR-8 ovarian = tested on: OVCAR-8 ovarian
SW-620 colon = tested on: SW-620 colon
SNB-75 CNS = tested on: SNB-75 CNS
NCI-H226 lung = tested on: NCI-H226 lung
CCRF-CEM leukemia = tested on: CCRF-CEM leukemia
HS 578T breast = tested on: HS 578T breast
SR leukemia = tested on: SR leukemia
OVCAR-3 ovarian = tested on: OVCAR-3 ovarian
UO-31 renal = tested on: UO-31 renal
SF-295 CNS = tested on: SF-295 CNS
IGROV1 ovarian = tested on: IGROV1 ovarian
KM12 colon = tested on: KM12 colon
RPMI-8226 leukemia = tested on: RPMI-8226 leukemia
ACHN renal = tested on: ACHN renal
SK-MEL-28 melanoma = tested on: SK-MEL-28 melanoma
NCI-H23 lung = tested on: NCI-H23 lung
MOLT-4 leukemia = tested on: MOLT-4 leukemia
M14 melanoma = tested on: M14 melanoma
SF-539 CNS = tested on: SF-539 CNS
A549 NSCLC = tested on: A549 NSCLC
MALME-3M melanoma = tested on: MALME-3M melanoma
OVCAR-4 ovarian = tested on: OVCAR-4 ovarian
PC-3 prostate = tested on: PC-3 prostate
MDA-MB-435 = tested on: MDA-MB-435
786-0 renal = tested on: 786-0 renal
SN12C renal = tested on: SN12C renal

COc1ccc(-c2nsc3c2NC(=O)CC3c2ccc3c(c2)OCO3)cc1 (stereo unspecified)
GI50 (K-562 leukemia): 0.408 µM
TGI (K-562 leukemia): > 100 µM
GI50 (NCI-H460 lung): 0.498 µM
TGI (NCI-H460 lung): > 100 µM
GI50 (SNB-19 CNS): 48.7 µM
TGI (SNB-19 CNS): > 100 µM
GI50 (MCF7 breast): 0.367 µM
TGI (MCF7 breast): > 100 µM
GI50 (OVCAR-5 ovarian): 3.19 µM
TGI (OVCAR-5 ovarian): > 100 µM
GI50 (HCT-116 colon): 0.574 µM
TGI (HCT-116 colon): > 100 µM
GI50 (UACC-257 melanoma): 10.8 µM
TGI (UACC-257 melanoma): > 100 µM
GI50 (MDA-MB-231 breast): 1.13 µM
TGI (MDA-MB-231 breast): 11.6 µM
GI50 (T-47D breast): 0.724 µM
TGI (T-47D breast): > 100 µM
GI50 (SK-MEL-5 melanoma): 1.46 µM
TGI (SK-MEL-5 melanoma): 42.2 µM
GI50 (RXF 393 renal): 1.38 µM
TGI (RXF 393 renal): 7.88 µM
GI50 (UACC-62 melanoma): 1.21 µM
TGI (UACC-62 melanoma): > 100 µM
GI50 (DU-145 prostate): 2.78 µM
TGI (DU-145 prostate): 53.1 µM
GI50 (HT29 colon): 0.414 µM
TGI (HT29 colon): 11.3 µM
GI50 (TK-10 renal): 8.25 µM
TGI (TK-10 renal): > 100 µM
GI50 (BT-549 breast): 2.54 µM
TGI (BT-549 breast): > 100 µM
GI50 (NCI/ADR-RES ovarian): 0.524 µM
TGI (NCI/ADR-RES ovarian): 6.12 µM
GI50 (A498 renal): 1.05 µM
TGI (A498 renal): 7.05 µM
GI50 (CAKI-1 renal): 0.852 µM
TGI (CAKI-1 renal): > 100 µM
GI50 (NCI-H522 lung): 0.464 µM
TGI (NCI-H522 lung): 3.57 µM
GI50 (HOP-62 NSCLC): 1.92 µM
TGI (HOP-62 NSCLC): > 100 µM
GI50 (SK-OV-3 ovarian): 2.33 µM
TGI (SK-OV-3 ovarian): > 100 µM
GI50 (COLO 205 colon): 0.627 µM
TGI (COLO 205 colon): 3.72 µM
GI50 (HCC-2998 colon): 1.6 µM
TGI (HCC-2998 colon): 6.37 µM
GI50 (HL-60(TB) leukemia): 0.579 µM
TGI (HL-60(TB) leukemia): 8.32 µM
GI50 (SF-268 CNS): 6.44 µM
TGI (SF-268 CNS): > 100 µM
GI50 (HCT-15 colon): 0.493 µM
TGI (HCT-15 colon): > 100 µM
GI50 (OVCAR-8 ovarian): 3.04 µM
TGI (OVCAR-8 ovarian): > 100 µM
GI50 (SW-620 colon): 0.514 µM
TGI (SW-620 colon): > 100 µM
GI50 (SNB-75 CNS): 1.49 µM
TGI (SNB-75 CNS): 9.97 µM
GI50 (NCI-H226 lung): 7.28 µM
TGI (NCI-H226 lung): > 100 µM
GI50 (CCRF-CEM leukemia): 1.09 µM
TGI (CCRF-CEM leukemia): 8.49 µM
GI50 (HS 578T breast): 2.06 µM
TGI (HS 578T breast): 54.5 µM
GI50 (SR leukemia): 0.401 µM
TGI (SR leukemia): 39.3 µM
GI50 (OVCAR-3 ovarian): 0.874 µM
TGI (OVCAR-3 ovarian): 10.4 µM
GI50 (UO-31 renal): 5.09 µM
TGI (UO-31 renal): > 100 µM
GI50 (SF-295 CNS): 1.92 µM
TGI (SF-295 CNS): 25.9 µM
GI50 (IGROV1 ovarian): 2.61 µM
TGI (IGROV1 ovarian): > 100 µM
GI50 (KM12 colon): 0.645 µM
TGI (KM12 colon): > 100 µM
GI50 (RPMI-8226 leukemia): 2.51 µM
TGI (RPMI-8226 leukemia): > 100 µM
GI50 (ACHN renal): 3.14 µM
TGI (ACHN renal): > 100 µM
GI50 (SK-MEL-28 melanoma): 5.28 µM
TGI (SK-MEL-28 melanoma): > 100 µM
GI50 (NCI-H23 lung): 3.2 µM
TGI (NCI-H23 lung): > 100 µM
GI50 (MOLT-4 leukemia): 1.29 µM
TGI (MOLT-4 leukemia): 18.7 µM
GI50 (M14 melanoma): 0.715 µM
TGI (M14 melanoma): > 100 µM
GI50 (SF-539 CNS): 1.05 µM
TGI (SF-539 CNS): 3.7 µM
GI50 (A549 NSCLC): 0.841 µM
TGI (A549 NSCLC): > 100 µM
GI50 (MALME-3M melanoma): 0.77 µM
TGI (MALME-3M melanoma): > 100 µM
GI50 (OVCAR-4 ovarian): 6.03 µM
TGI (OVCAR-4 ovarian): > 100 µM
GI50 (PC-3 prostate): 2.01 µM
TGI (PC-3 prostate): > 100 µM
GI50 (MDA-MB-435): 0.219 µM
TGI (MDA-MB-435): 0.539 µM
GI50 (786-0 renal): 3.24 µM
TGI (786-0 renal): > 100 µM
GI50 (SN12C renal): 2.55 µM
TGI (SN12C renal): > 100 µM
